Tests used:
Assay type in all cases: cell-based
[1] = test system: isolated rat soleus muscles; assay: Recovery of nerve-stimulated force in isolated rat soleus muscles exposed to 3.5 mM Mg2+; conditions: 9-AC added at 3.5 mM Mg2+; nerve stimulation by suction electrode, 60 Hz
Protocol: (§1) Experiments were performed using rat soleus muscles from either young (4-wk-old) or adult Wistar rats (12-14-week-old). Animal handling, killing and isolation of muscle is described elsewhere All experiments were performed using normal Krebs-Ringer bicarbonate solution (NKR). In solutions with elevated Mg^2+, MgCl2 was added to NKR-solution causing minor increases in osmolarity and ionic strength. In solutions with elevated K^+, 4 mM NaCl was replaced by 4 mM KCl in the NKR.
The aim was to find compounds that by inhibition of CIC-1 channels can recover nerve-stimulated force under conditions of fatigue including conditions where fatigue is caused by compromised neuromuscular transmission. Neuromuscular transmission dysfunction can develop because of both pre- and/or post-synaptic complications in connection with a disorder or as part of neuromuscular blockade during/after surgery. In the initial series of drug testing, experiments were performed with isolated muscles in the presence of sub-maximal ACh receptor antagonist tubocurarine. […] To mimic conditions with pre-synaptic complication (Lambert Eaton syndrome, motor neuron disorder, polyneuropathy) the intact nerve-muscle preparations were incubated at elevated extracellular Mg^2+, which is known to suppress release of ACh from nerve terminals of motor neurons.

[2] = test system: isolated rat soleus muscles; assay: Recovery of nerve-stimulated force in isolated rat soleus muscles exposed to sub-maximal tubocurarine; conditions: 9-AC added after tubocurarine; nerve stimulation by suction electrode, 60 Hz
Protocol: as §1
In all contraction experiments, isometric force production was determined and force produced during contractions was quantified by measuring the integral of the force response (AUC). Stimulation and force recordings have been described elsewhere. […] In these latter experiments, extracellular recordings of action potentials (M-waves) could be measured without temporal overlap with stimulation artefacts.
The aim was to find compounds that by inhibition of CIC-1 channels can recover nerve-stimulated force under conditions of fatigue including conditions where fatigue is caused by compromised neuromuscular transmission. Neuromuscular transmission dysfunction can develop because of both pre- and/or post-synaptic complications in connection with a disorder or as part of neuromuscular blockade during/after surgery. In the initial series of drug testing, experiments were performed with isolated muscles in the presence of sub-maximal ACh receptor antagonist tubocurarine. Since the inclusion of tubocurarine caused a partial loss of neuromuscular transmission this experiment mimics the conditions in myasthenia gravis and neuromuscular blockade. To mimic conditions with pre-synaptic complication (Lambert Eaton syndrome, motor neuron disorder, polyneuropathy) the intact nerve-muscle preparations were incubated at elevated extracellular Mg^2+, which is known to suppress release of ACh from nerve terminals of motor neurons.
The experiments also illustrate that field stimulation of the entire nerve-muscle preparation selectively activates the motor nerve when short-duration pulses (0.02 vs 0.2 ms) were used. In FIG. 1A the preparation was stimulated either via field stimulation or via nerve-stimulation using a suction electrode. With the suction electrode only the nerve could be stimulated. When exposed to a submaximal concentration of the ACh receptor antagonist tubocurarine (0.2 μM) a clear drop in peak force and a further decline (or fade) in force during the stimulation developed. This drop in force clearly reflected compromised neuromuscular transmission, as the decline in peak force and fading were not seen with direct stimulation of the muscle. […] Thus, loss of M-wave and force with tubocurarine reflected partial blockade of neuromuscular function. Such fading of force and M-waves during stimulation represent clinical hallmarks of both myasthenia gravis and neuromuscular blockade in connection with surgery. In FIG. 1B, observations with normal (0.2 ms) and short-duration (0.02 ms) pulses have been compared. It can be seen that only with short-duration pulses did tubocurarine cause a decline in peak force and fading (FIG. 1B). This confirms that short-duration pulses in field stimulation could be used as specific nerve-stimulation. […] Elevated extracellular Mg^2+ could thus be used to partially block neuromuscular transmission and thus be used as a model of conditions with compromised pre-synaptic function (Lambert Eaton syndrome, amyotrophic lateral sclerosis, spinal muscular atrophy). […]

[3] = test system: isolated rat muscle; assay: Measurement of force in an in vitro model: isolated rat soleus nerve-muscle preparation, 115 nM tubocurarine; conditions: 50 μM compound after 90 min in tubocurarine
Protocol: FIGS. 12A-12B. […] Force traces from a representative muscle stimulated to contract in 1) control condition before addition of neuromuscular blocking agent, 2) the force response to stimulation after 90 minutes incubation with Tubocurarine. […] The traces presented in FIG. 12A (1, 2, 3), correspond to the dotted lines in FIG. 12B, respectively.
Recovery of force is quantified as the percentage of the force prior to tubocurarine that is recovered by the compound.
The current invention relates to compounds that inhibit CIC-1 ion channels and increase muscle excitability and thereby improve muscle function in clinical conditions where muscle activation is failing. Such conditions result in loss of contractile function of skeletal muscle, weakness and excessive fatigue. […]
Experimentally, soleus muscles from 4-5 wk old rats were isolated with the motor nerve remaining attached. […] Stimulation of the motor nerve led to activation of the muscle fibres and ensuing force production that was recorded.
After mounting the nerve-muscle preparation in the experimental setup, the contractile function of the muscle was initially assessed under the control conditions (FIG. 2A). […] To quantify the ability of the compound to restore force the percentage of the initial force that was restored was determined after 40 mins of compound exposure (FIG. 2B) and the point increase is reported in Table 8.

## O=C(O)c1c2ccccc2cc2ccccc12 [Compound 9-AC, 9-anthracenecarboxylic acid, reference compound]
[1]
  recovery of force and M-wave signal: marked recovery of both force and M-wave signal
[2]
  recovery of force and M-wave signal: marked recovery of both force and M-wave signal

## O=C(O)[C@H](CF)Oc1ccc(Br)cc1F [Compound A-19, (2R)-2-(4-bromo-2-fluorophenoxy)-3-fluoropropanoic acid]
[3]
  recovery of force (in words): subsequently recovered

From patent US11730714B2, “Compounds for the treatment of neuromuscular disorders” (NMD PHARMA A/S, priority 2017, dated 2023)
